# Measurements: paper PMC11879692, “PDE4 inhibitor rolipram represses hedgehog signaling via ubiquitin-mediated proteolysis of GLI transcription factors to regress breast cancer” (The Journal of Biological Chemistry, 2025)
# Columns and labels:
# MCF-7 cells [1] = assay: MTT cell viability assay; assay type: cell-based; settings: Homo sapiens, MCF7, 24 h, read-out: concentration for 50% growth inhibition (IC50)
# Description: (§1) To determine the concentration of rolipram required for 50% growth inhibition (IC50) of MCF-7 and MDA-MB-231 cells, MTT (3-[4,5-dimethylthiazol-2-yl]-2,5 diphenyl tetrazolium bromide) assay, which relies on the reduction of MTT to form purple-colored formazan crystals by mitochondrial dehydrogenases, was performed ([27]). Cells were seeded in a 96-well plate at a density of 3 × 10^3 cells/well and treated with increasing concentrations of rolipram ranging from 1 to 80 μM. MTT (G Biosciences; catalog no.: RC1130) was added after 24 h of treatment, formazan crystals were dissolved in 100 μl of DMSO, and absorbance measured at 595 nm using the BioRad iMark Microplate Reader (RRID: SCR_023799). The percentage of metabolically active cells was calculated with respect to untreated control cells, negating the blank reading. Graphs were plotted for the percentages of viable cells against the concentrations of rolipram to obtain linear trend-line equations, which were used to derive the IC50 concentration of rolipram for each cell lines. The IC50 doses were used for all subsequent experiments ([28]).
# MDA-MB-231 cells [2] = assay: MTT cell viability assay; assay type: cell-based; settings: Homo sapiens, 24 h, read-out: concentration for 50% growth inhibition (IC50)
# Description: as §1
# [3] = system: intracellular cAMP in MCF-7 cells; assay: cAMP assay (ELISA-based kit), intracellular cAMP; assay type: cell-based, human; settings: 24 h, untreated control 14.1 pmol/ml
# Description: (§2) To determine the intracellular level of cAMP, a […] ELISA-based cAMP assay kit was used, which relies on preparation of a standard curve for cAMP (pmol/ml) and denoting all the experimental values from the standard curve, and finally expressing as mean values with standard errors of triplicate samples per treatment group. The assay kit was obtained from Cayman Chemicals (item no.: 581001), and the assay was performed following the manufacturer’s protocol after washing the cells with 1X PBS (composition: 137 mM NaCl, 2.7 mM KCl, 10 mM Na2HPO4, and 1.8 mM KH2PO4) and treating with 0.1 M HCl for 20 min and sonicating the cells for lysis. In brief, the cell lysate was added to the 96-well plate precoated with mouse monoclonal anti-rabbit IgG and which also contained cAMP–acetylcholinesterase (cAMP tracer) that competes with the free cAMP in the cell lysate to bind to the cAMP-specific rabbit antibody. Following several washes, the absorbance of the color generated because of addition of acetylcholinesterase substrate is measured at 412 nm by Bio-Rad iMark Microplate Reader (RRID: SCR_023799), which is inversely proportional to the amount of free cAMP present in the cell lysate ([29]).
# [4] = system: intracellular cAMP in MDA-MB-231 cells; assay: cAMP assay (ELISA-based kit), intracellular cAMP; assay type: cell-based, human; settings: 24 h, untreated 12.55 pmol/ml
# Description: as §2
# MCF-7 cells [5] = assay: Flow cytometric analysis of DNA content (PI); assay type: cell-based, human; settings: MCF-7, IC50 dose, 24 h, vs control
# Description: (§3) After treating the cells with rolipram for 24 h, cells were stained with PI (BD Pharmingen PI/RNase Staining Buffer; BD Biosciences; catalog no.: BD550825), following fixing of cells with 70% ethanol for 1 h at 4°C and permeabilization with 0.1% Triton X-100 (Sigma–Aldrich; catalog no.: X100). The cells were then analyzed using BD LSRFortessa flow cytometer (RRID: SCR_019600), and the data were analyzed using BD FACSDiva 9.0 software ([30]) (RRID: SCR_001456).
# MDA-MB-231 cells [6] = assay: Flow cytometric analysis of DNA content (PI); assay type: cell-based, human; settings: MDA-MB-231, IC50 dose, 24 h, vs control
# Description: as §3
# [7] = system: GLI2 and GLI3 in MCF-7 cells; assay: Ubiquitination of GLI2 and GLI3 (HA-Ub transfection, immunoprecipitation, anti-HA blot); assay type: cell-based, human
# Description: (§4) HA-Ubiquitin plasmid (Addgene; catalog no.: plasmid #18712, RRID: Addgene_18712) was transfected into MCF-7 and MDA-MB-231 cells using X-tremeGENE HP DNA Transfection Reagent (Roche; catalog no.: XTGHP-RO). Proteins were extracted from the untreated control cells and cells treated with rolipram for 24 h and were immunoprecipitated using antibodies raised against GLI2 and GLI3. The immunoprecipitation involved overnight incubation of protein and antibodies in Pierce Protein A/G Agarose (Thermo Scientific; catalog no.: 20421) at 4°C. Following immunoprecipitation, the precipitate was subjected to Western blot analysis using anti-HA antibodies (Cell Signaling Technology; catalog no.: 2367; RRID: AB_10691311) to observe ubiquitination of the desired proteins. Cells were cotreated with MG-132 (Sigma–Aldrich; catalog no.: M7449), a proteosomal blocker for ascertaining ubiquitination ([35]).
# [8] = system: GLI2 and GLI3 in MDA-MB-231 cells; assay: as above; assay type: cell-based, human
# Description: as §4
# [9] = Bodyweight of tumor-bearing mice; assay type: in vivo, BALB/c mice; settings: intraperitoneally
# Description: Solid tumors were developed in BALB/c mice (n = 3) except the control group (group I) by injecting 1 × 10^4 viable 4T1 (RRID: CVCL_0125) mice breast carcinoma cells (resuspended in 50 μl of PBS) into the inguinal fourth mammary fat pad, and the tumor was allowed to develop for 14 days ([37], [38]). Mice were randomly divided into three groups, viz., untreated tumor (group II), mice treated intraperitoneally with 1 mg//kg bodyweight of rolipram (group III), and mice receiving 5 mg/kg bodyweight of rolipram, intraperitoneally (group IV) ([39], [40]). After 14 days, the mice were sacrificed. Lung, kidney, liver, serum, and the tumors were collected for further experiments ([15]).
smiles,measurement,setting,value
"COc1ccc(C2CNC(=O)C2)cc1OC1CCCC1 (centres unmarked) [rolipram, Rolipram]",IC50,MCF-7 cells [1],38 µM
same,IC50,MDA-MB-231 cells [2],53 µM
same,intracellular cAMP level,"[3]; MCF-7, IC50 dose",43.12 pmol/mL
same,intracellular cAMP level,"[3]; MCF-7, half IC50 dose",24.02 pmol/mL
same,intracellular cAMP level,"[4]; MDA-MB-231, IC50 dose",37.41 pmol/mL
same,intracellular cAMP level,"[4]; MDA-MB-231, half IC50 dose",28.35 pmol/mL
same,G0/G1 cell population,MCF-7 cells [5],significantly increased
same,G0/G1 cell population,MDA-MB-231 cells [6],significantly increased
same,ubiquitination of GLI2 and GLI3,"[7]; MCF-7, IC50 dose, 6 h to 24 h",significant ubiquitination
same,ubiquitination of GLI2 and GLI3,"[7]; MCF-7, in the presence of H89",not able to induce ubiquitination
same,ubiquitination of GLI2 and GLI3,"[8]; MDA-MB-231, IC50 dose",ubiquitination of both proteins was also observed
same,ubiquitination of GLI2 and GLI3,"[8]; MDA-MB-231, in the presence of H89",not able to induce ubiquitination
same,bodyweight of tumor-bearing mice,[9]; 1 mg/kg bodyweight,No significant changes
same,bodyweight of tumor-bearing mice,[9]; 5 mg/kg bodyweight,No significant changes
